{
  "source": "patent US7189680B2",
  "about": "“5-halo-6-aryl[1,2,4]triazolo[1,5-a]pyrimidin-7-amines” (Bayer Cropscience AG, priority 2001, dated 2007)",
  "data": [
    {"tested_on": "not given", "test": "not given", "conditions": "not given", "units": {"melting point": "°C"}, "values": [
      {"smiles": "CN(C)Nc1c(-c2c(F)cc(F)cc2F)c(Cl)nc2ncnn12", "note": "[Example 1, 5-chloro-7-(2,2-dimethylhydrazino)-6-(2,4,6-trifluorophenyl)[1,2,4]-triazolo[1,5-a]pyrimidine]", "melting point": "165 to 168"}
    ]},
    {"tested_on": "Fusarium nivale (var. majus)", "test": "Fusarium nivale (var. majus) test (wheat)/protective", "type": "in vivo", "conditions": "protective, 500 g/ha, evaluation 4 days following inoculation", "experimental": "(§1) To produce a suitable preparation of active compound, one part by weight of active compound is mixed with the stated amounts of solvent and emulsifier, and the concentrate is diluted with water to the desired concentration.\nTo test for protective activity, young plants are sprayed with the active compound preparation at the application rate indicated. After the spray coating has dried on, the plants are sprayed with a conidia suspension of Fusarium nivale (var. majus).\nThe plants are placed in a greenhouse under transparent incubation hoods at a temperature of about 15° C. and a relative humidity of about 100%.\nEvaluation is made 4 days following inoculation. 0% denotes an efficacy corresponding to that of the control, whereas an efficacy of 100% means that no infestation is observed.", "units": {"Efficacy in %": "%"}, "values": [
      {"smiles": "CNN(C)c1c(-c2c(F)cc(F)cc2F)c(Cl)nc2ncnn12", "note": "[drawing 45]", "Efficacy in %": 93},
      {"smiles": "CCCN(N)c1c(-c2c(F)cc(F)cc2F)c(Cl)nc2ncnn12", "note": "[drawing 43]", "Efficacy in %": 80},
      {"smiles": "CCN(N)c1c(-c2c(F)cc(F)cc2F)c(Cl)nc2ncnn12", "note": "[drawing 44]", "Efficacy in %": 80}
    ]},
    {"tested_on": "not listed separately", "test": "logP determination by HPLC (EEC directive 79/831 Annex V. A8)", "type": "physicochemical", "conditions": "HPLC gradient method, acetonitrile/0.1% aqueous phosphoric acid; Table 1", "experimental": "*) The logP values were determined in accordance with EEC directive 79/831 Annex V. A8 by HPLC (gradient method, acetonitrile/0.1% aqueous phosphoric acid)", "values": [
      {"smiles": "CC(C)CN(N)c1c(-c2c(F)cc(F)cc2F)c(Cl)nc2ncnn12.Cl", "note": "[Example 153]", "logP*": 2.88},
      {"smiles": "CC(C)=NN(CC(C)C)c1c(-c2c(F)cc(F)cc2F)c(Cl)nc2ncnn12", "note": "[Example 158]", "logP*": 3.63},
      {"smiles": "CCC(C)NNc1c(-c2cccc3c2OC(F)(F)O3)c(Cl)nc2ncnn12", "note": "(stereo not drawn) [Example 151]", "logP*": 3.21},
      {"smiles": "Fc1ccccc1-c1c(Cl)nc2ncnn2c1NOCc1c(Cl)cccc1Cl", "note": "[Example 101]", "logP*": 3.3},
      {"smiles": "CC(C)CN(N)c1c(-c2ccc(F)cc2Cl)c(Cl)nc2ncnn12", "note": "[Example 172]", "logP*": 3.15},
      {"smiles": "Fc1cccc(F)c1-c1c(Cl)nc2ncnn2c1NOC1CCCCO1", "note": "(stereo not drawn) [Example 51]", "logP*": 2.43},
      {"smiles": "CC(NNc1c(-c2c(F)cc(F)cc2F)c(Cl)nc2ncnn12)C1CC1", "note": "(stereo not drawn) [Example 25]", "logP*": 3.02},
      {"smiles": "CONc1c(-c2c(F)c(F)c(F)c(F)c2F)c(Cl)nc2ncnn12", "note": "[Example 121]", "logP*": 2.53},
      {"smiles": "Fc1c(F)c(F)c(-c2c(Cl)nc3ncnn3c2NOCc2c(Cl)cccc2Cl)c(F)c1F", "note": "[Example 120]", "logP*": 3.65},
      {"smiles": "Fc1ccccc1-c1c(Cl)nc2ncnn2c1NOCc1cccc(C(F)(F)F)c1", "note": "[Example 99]", "logP*": 3.34},
      {"smiles": "C=CCONc1c(-c2c(F)c(F)c(F)c(F)c2F)c(Cl)nc2ncnn12", "note": "[Example 74]", "logP*": 2.89},
      {"smiles": "CCONc1c(-c2ccccc2F)c(Cl)nc2ncnn12", "note": "[Example 57]", "logP*": 2.13},
      {"smiles": "CCC(C)NNc1c(-c2c(Cl)cccc2Cl)c(Cl)nc2ncnn12", "note": "(stereo not drawn) [Example 154]", "logP*": 3.14},
      {"smiles": "Fc1cccc(F)c1-c1c(Cl)nc2ncnn2c1NOCc1cc(Cl)cc(Cl)c1", "note": "[Example 104]", "logP*": 3.63},
      {"smiles": "CCC(C)N(N)c1c(-c2cccc(C(F)(F)F)c2Cl)c(Cl)nc2ncnn12", "note": "(stereo not drawn) [Example 144]", "logP*": 3.44},
      {"smiles": "Fc1ccc(CONc2c(-c3c(F)cc(F)cc3F)c(Cl)nc3ncnn23)cc1", "note": "[Example 83]", "logP*": 2.99},
      {"smiles": "CCCN(N)c1c(-c2c(F)cc(F)cc2F)c(Cl)nc2ncnn12", "note": "[Example 20]", "logP*": 2.58},
      {"smiles": "NN(c1c(-c2c(F)cc(F)cc2F)c(Cl)nc2ncnn12)C1CCCCC1", "note": "[Example 125]", "logP*": 3.33},
      {"smiles": "CCC(C)N(N)c1c(-c2cc(C(F)(F)F)ccc2Cl)c(Cl)nc2ncnn12", "note": "(stereo not drawn) [Example 148]", "logP*": 3.53},
      {"smiles": "CC(C)CN(N)c1c(-c2c(Cl)cc(C(F)(F)F)cc2Cl)c(Cl)nc2ncnn12", "note": "[Example 136]", "logP*": 3.85},
      {"smiles": "CC(C)ONc1c(-c2ccccc2F)c(Cl)nc2ncnn12", "note": "[Example 98]", "logP*": 2.42},
      {"smiles": "CC(C)ONc1c(-c2c(F)c(F)c(F)c(F)c2F)c(Cl)nc2ncnn12", "note": "[Example 122]", "logP*": 3.04},
      {"smiles": "Fc1cc(F)c(-c2c(Cl)nc3ncnn3c2NNCCN2CCOCC2)c(F)c1", "note": "[Example 54]", "logP*": 1.14},
      {"smiles": "CCONc1c(-c2c(F)cc(F)cc2F)c(Cl)nc2ncnn12", "note": "[Example 40]", "logP*": 2.33},
      {"smiles": "CN(O)c1c(-c2c(F)cccc2F)c(Cl)nc2ncnn12", "note": "[Example 124]", "logP*": 2.19},
      {"smiles": "Fc1cc(F)c(-c2c(Cl)nc3ncnn3c2NOCc2ccc(OC(F)(F)F)cc2)c(F)c1", "note": "[Example 11]", "logP*": 3.54},
      {"smiles": "CCOC(=O)NN(CC(C)C)c1c(-c2c(F)cc(F)cc2F)c(Cl)nc2ncnn12", "note": "[Example 168]", "logP*": 2.99},
      {"smiles": "Fc1ccccc1-c1c(Cl)nc2ncnn2c1NOCc1ccc(C(F)(F)F)cc1", "note": "[Example 58]", "logP*": 3.31},
      {"smiles": "NN(CC1CC1)c1c(-c2c(F)cc(F)cc2F)c(Cl)nc2ncnn12", "note": "[Example 159]", "logP*": 2.66},
      {"smiles": "OCCNNc1c(-c2c(F)cc(F)cc2F)c(Cl)nc2ncnn12", "note": "[Example 33]", "logP*": 1.68},
      {"smiles": "N#CCCNNc1c(-c2c(F)cc(F)cc2F)c(Cl)nc2ncnn12", "note": "[Example 23]", "logP*": 2.03},
      {"smiles": "CCC(C)NNc1c(-c2cccc(C(F)(F)F)c2Cl)c(Cl)nc2ncnn12", "note": "(stereo not drawn) [Example 145]", "logP*": 3.37},
      {"smiles": "Clc1cccc(Cl)c1-c1c(Cl)nc2ncnn2c1NNC1CCCC1", "note": "[Example 160]", "logP*": 3.21},
      {"smiles": "CC(C)CN(N)c1c(-c2c(F)cccc2F)c(Cl)nc2ncnn12", "note": "[Example 170]", "logP*": 2.72},
      {"smiles": "CCCCONc1c(-c2c(F)cc(F)cc2F)c(Cl)nc2ncnn12", "note": "[Example 85]", "logP*": 3.01},
      {"smiles": "NN(CC1CCC1)c1c(-c2c(F)cccc2Cl)c(Cl)nc2ncnn12", "note": "[Example 173]", "logP*": 3.07},
      {"smiles": "CON(CC(C)C)c1c(-c2c(F)cc(F)cc2F)c(Cl)nc2ncnn12", "note": "[Example 152]", "logP*": 3.78},
      {"smiles": "CC(C)CN(N)c1c(-c2cccc(C(F)(F)F)c2Cl)c(Cl)nc2ncnn12", "note": "[Example 163]", "logP*": 3.45},
      {"smiles": "Fc1ccccc1-c1c(Cl)nc2ncnn2c1NOCc1cccc(Cl)c1", "note": "[Example 60]", "logP*": 3.15},
      {"smiles": "Fc1cccc(F)c1-c1c(Cl)nc2ncnn2c1NOCc1ccc(Cl)cc1", "note": "[Example 47]", "logP*": 3.14},
      {"smiles": "CC(C)N(N)c1c(-c2ccc(C(F)(F)F)cc2F)c(Cl)nc2ncnn12", "note": "[Example 134]", "logP*": 3.08},
      {"smiles": "Fc1ccccc1-c1c(Cl)nc2ncnn2c1NOC1CCCCO1", "note": "(stereo not drawn) [Example 66]", "logP*": 2.46},
      {"smiles": "CC(C)ON(C)c1c(-c2c(F)cccc2F)c(Cl)nc2ncnn12", "note": "[Example 34]", "logP*": 3.01},
      {"smiles": "Fc1c(F)c(F)c(-c2c(Cl)nc3ncnn3c2NOCc2ccc(Cl)cc2Cl)c(F)c1F", "note": "[Example 114]", "logP*": 4.02},
      {"smiles": "CC(C)CN(N)c1c(-c2cc(C(F)(F)F)ccc2C(F)(F)F)c(Cl)nc2ncnn12", "note": "[Example 137]", "logP*": 3.57},
      {"smiles": "CC(C)(O)CNNc1c(-c2c(F)cc(F)cc2F)c(Cl)nc2ncnn12", "note": "[Example 53]", "logP*": 2.09},
      {"smiles": "CCONc1c(-c2c(F)c(F)c(F)c(F)c2F)c(Cl)nc2ncnn12", "note": "[Example 70]", "logP*": 2.73},
      {"smiles": "Fc1cccc(F)c1-c1c(Cl)nc2ncnn2c1NOCc1ccc(C(F)(F)F)cc1", "note": "[Example 105]", "logP*": 3.32},
      {"smiles": "CNN(C)c1c(-c2ccccc2F)c(Cl)nc2ncnn12", "note": "[Example 88]", "logP*": 2.13},
      {"smiles": "Fc1cc(F)c(-c2c(Cl)nc3ncnn3c2NNC2CCCC2)c(F)c1", "note": "[Example 55]", "logP*": 2.98},
      {"smiles": "CN(O)c1c(-c2c(F)cc(F)cc2F)c(Cl)nc2ncnn12", "note": "[Example 123]", "logP*": 1.99},
      {"smiles": "Fc1cc(F)c(-c2c(Cl)nc3ncnn3c2NOCOc2ccc(Cl)nc2)c(F)c1", "note": "[Example 15]", "logP*": 2.43},
      {"smiles": "CC(C)CONc1c(-c2c(F)cc(F)cc2F)c(Cl)nc2ncnn12", "note": "[Example 79]", "logP*": 3}
    ]},
    {"tested_on": "Venturia inaequalis", "test": "Venturia test (apple)/protective", "type": "in vivo", "conditions": "protective, 100 g/ha, evaluation 10 days following inoculation", "experimental": "as §1\nTo test for protective activity, young plants are sprayed with the active compound preparation at the application rate indicated. After the spray coating has dried on, the plants are inoculated with an aqueous conidia suspension of the apple scab causative organism, Venturia inaequalis, and then remain in an incubation cabin for 1 day at about 20° C. and 100% relative humidity.\nThe plants are placed in a greenhouse at a temperature of about 15° C. and a relative humidity of about 90%.\nEvaluation is made 10 days following inoculation. 0% denotes an efficacy corresponding to that of the control, whereas an efficacy of 100% means that no infestation is observed.", "units": {"Efficacy in %": "%"}, "values": [
      {"smiles": "CN(C)Nc1c(-c2c(F)cc(F)cc2F)c(Cl)nc2ncnn12", "note": "[drawing 46]", "Efficacy in %": 94}
    ]},
    {"tested_on": "Alternaria solani", "test": "Alternaria test (tomato)/protective", "type": "in vivo", "conditions": "protective, 750 g/ha, evaluation 7 days after inoculation", "experimental": "To produce an appropriate preparation of active compound, 1 part by weight of active compound is mixed with the stated amounts of solvent and emulsifier, and the concentrate is diluted with water to the desired concentration.\nTo test for protective activity, young tomato plants are sprayed with the active compound preparation at the application rate indicated. One day after treatment, the plants are inoculated with a spore suspension of Alternaria solani and then stand at 100% relative humidity and 20° C. for 24 h. The plants subsequently stand at 96% relative humidity and a temperature of 20° C.\nEvaluation is made 7 days after inoculation. 0% denotes an efficacy corresponding to that of the control while an efficacy of 100% means that no infestation is observed.", "units": {"Efficacy in %": "%"}, "values": [
      {"smiles": "NN(CC1CCCCC1)c1c(-c2c(F)cc(F)cc2F)c(Cl)nc2ncnn12", "note": "[drawing 50]", "Efficacy in %": 94},
      {"smiles": "C=CCNNc1c(-c2c(F)cc(F)cc2F)c(Cl)nc2ncnn12", "note": "[drawing 49]", "Efficacy in %": 94},
      {"smiles": "CC(C)(C)NNc1c(-c2c(F)cc(F)cc2F)c(Cl)nc2ncnn12", "note": "[drawing 51]", "Efficacy in %": 94},
      {"smiles": "CCN(N)c1c(-c2c(F)cc(F)cc2F)c(Cl)nc2ncnn12", "note": "[drawing 48]", "Efficacy in %": 89},
      {"smiles": "CCCN(N)c1c(-c2c(F)cc(F)cc2F)c(Cl)nc2ncnn12", "note": "[drawing 47]", "Efficacy in %": 94}
    ]}
  ]
}
